Laboratory results from PubChem BioAssay AID330 (DTP/NCI, 2004).
Where “and” joins values, the source holds several entries; their conditions need not be identical. Identical values can stand only once. Toxic doses and inconclusive results are not listed. Bridge positions count the residues as written; N and C are the ends. Square brackets hold non-standard residues; d marks the D form. Peptide text beside a SMILES is read from it. I, II: the chains in the order shown. * marks the point of attachment. Quinoxaline2carbonyl = O=C(c1cnc2ccccc2n1)*; NMeV = CN[CH](C(=O)O)C(C)C; NMeC = CN[CH](CS)C(=O)O

Tested on: P388 leukemia ip, CD2F1 mice, survival T/C
Test: NCI In Vivo Anticancer Drug Screen. Data for tumor model P388 Leukemia (intraperitoneal) in CD2F1 (CDF1) mice
Settings: endpoint: median survival time, higher = longer survival
In short: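 Mice carrying the transplanted tumor received test compound or vehicle. Survival was recorded in each group, and the value is the treated-group measurement divided by that of the vehicle-treated control group.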

[1] = dose: 12.5 mg/kg/injection, schedule: Q01DX009 (ip), vehicle: Klucel (hydroxypropylcellulose) (HPC)
[2] = dose: 50.0 mg/kg/injection, schedule: Q01DX005 (ip), vehicle: Klucel (hydroxypropylcellulose) (HPC)

For `COc1ccc2nc(N(C)C)cc(N(C)C)c2c1`, the T/C [1] was 94 % of control, the T/C (dose: 25.0 mg/kg/injection, schedule: Q01DX009 (ip), vehicle: Klucel (hydroxypropylcellulose) (HPC)) was 94 % of control and the T/C (dose: 50.0 mg/kg/injection, schedule: Q01DX009 (ip), vehicle: Klucel (hydroxypropylcellulose) (HPC)) was 87 % of control.

For `CC1(CC(C)(C)c2ccccc2)OCCO1`, the T/C (dose: 25.0 mg/kg/injection, schedule: Q01DX009 (ip), vehicle: water) was 96 % of control, the T/C (dose: 50.0 mg/kg/injection, schedule: Q01DX009 (ip), vehicle: water) was 91 % of control and the T/C (dose: 100.0 mg/kg/injection, schedule: Q01DX009 (ip), vehicle: water) was 102 % of control. For the same molecule, the T/C (dose: 200.0 mg/kg/injection, schedule: Q01DX009 (ip), vehicle: water) was 93 % of control and the T/C (dose: 400.0 mg/kg/injection, schedule: Q01DX009 (ip), vehicle: water) was 104 % of control.

For `NC(=O)C#CC(N)=O`, the T/C (dose: 0.11 mg/kg/injection, schedule: Q01DX009 (ip), vehicle: Klucel (hydroxypropylcellulose) (HPC)) was 100 % of control and 103 % of control, the T/C (dose: 0.22 mg/kg/injection, schedule: Q01DX009 (ip), vehicle: Klucel (hydroxypropylcellulose) (HPC)) was 100 % of control and 119 % of control and the T/C (dose: 0.45 mg/kg/injection, schedule: Q01DX009 (ip), vehicle: Klucel (hydroxypropylcellulose) (HPC)) was 103 % of control and 119 % of control. The T/C (dose: 0.9 mg/kg/injection, schedule: Q01DX009 (ip), vehicle: Klucel (hydroxypropylcellulose) (HPC)) was 100 % of control and 114 % of control.

In the case of `O=P(O)(O)SP(=O)(O)O.[Mn]`, the T/C (dose: 100.0 mg/kg/injection, schedule: Q04DX003 (ip), vehicle: Klucel (hydroxypropylcellulose) (HPC)) is reported as 105 % of control, the T/C (dose: 200.0 mg/kg/injection, schedule: Q04DX003 (ip), vehicle: Klucel (hydroxypropylcellulose) (HPC)) is reported as 110 % of control and the T/C (dose: 400.0 mg/kg/injection, schedule: Q04DX003 (ip), vehicle: Klucel (hydroxypropylcellulose) (HPC)) is reported as 119 % of control.

For `C=CCCCC1(c2ccccc2)C(=O)Oc2ccccc21` (configuration not stated), the T/C (dose: 50.0 mg/kg/injection, schedule: Q01DX005 (ip), vehicle: saline with Tween-80) was 98 % of control, the T/C (dose: 100.0 mg/kg/injection, schedule: Q01DX005 (ip), vehicle: saline with Tween-80) was 89 % of control and the T/C (dose: 200.0 mg/kg/injection, schedule: Q01DX005 (ip), vehicle: saline with Tween-80) was 90 % of control.

With `Cc1cc(N/N=C/c2ccc3c(c2)OCO3)c2cc3c(cc2n1)OCO3` the T/C (dose: 3.12 mg/kg/injection, schedule: Q01DX005 (ip), vehicle: Klucel (hydroxypropylcellulose) (HPC)) was 104 % of control, the T/C (dose: 6.25 mg/kg/injection, schedule: Q01DX005 (ip), vehicle: Klucel (hydroxypropylcellulose) (HPC)) was 95 % of control and the T/C (dose: 12.5 mg/kg/injection, schedule: Q01DX005 (ip), vehicle: Klucel (hydroxypropylcellulose) (HPC)) was 102 % of control and 95 % of control. The T/C (dose: 25.0 mg/kg/injection, schedule: Q01DX005 (ip), vehicle: Klucel (hydroxypropylcellulose) (HPC)) was 107 % of control and 114 % of control and the T/C [2] was 103 % of control.

In the case of `CCCCOP(O)(=S)OCCCC.[Yb]`, the T/C (dose: 100.0 mg/kg/injection, schedule: Q04DX002 (ip), vehicle: saline with Tween-80) is reported as 96 % of control, the T/C (dose: 200.0 mg/kg/injection, schedule: Q04DX002 (ip), vehicle: saline with Tween-80) is reported as 101 % of control and the T/C (dose: 400.0 mg/kg/injection, schedule: Q04DX002 (ip), vehicle: saline with Tween-80) is reported as 99 % of control.

In the case of `Cc1ccc2nc(NC(=O)OCc3ccccc3)sc2c1`, the T/C (dose: 6.25 mg/kg/injection, schedule: Q01DX009 (ip), vehicle: Klucel (hydroxypropylcellulose) (HPC)) is reported as 97 % of control and the T/C [1] is reported as 101 % of control.

`CC1NC(=O)C(NC(=O)c2cnc3ccccc3n2)COC(=O)C(C(C)C)N(C)C(=O)C2CSSCC(C(=O)N(C)C(C(C)C)C(=O)OCC(NC(=O)c3cnc4ccccc4n3)C(=O)NC(C)C(=O)N2C)N(C)C1=O` (configuration not stated) (I: Quinoxaline2carbonyl-SA[NMeC][NMeV] / II: Quinoxaline2carbonyl-SA[NMeC][NMeV]; ester I:1-II:C, I:C-II:1; disulfide I:3-II:3; configuration not given here) was tested, and the T/C (dose: 25.0 micrograms/kg/injection, schedule: Q01DX009 (ip), vehicle: water) was 150 % of control, the T/C (dose: 50.0 micrograms/kg/injection, schedule: Q01DX009 (ip), vehicle: water) was 153 % of control and the T/C (dose: 100.0 micrograms/kg/injection, schedule: Q01DX009 (ip), vehicle: water) was 185 % of control.

For `CCCCCCOc1cc2c(cc1C(C)c1ccc(OC)cc1)OCO2` (configuration not stated), the T/C [2] was 103 % of control, the T/C (dose: 100.0 mg/kg/injection, schedule: Q01DX005 (ip), vehicle: Klucel (hydroxypropylcellulose) (HPC)) was 109 % of control and the T/C (dose: 200.0 mg/kg/injection, schedule: Q01DX005 (ip), vehicle: Klucel (hydroxypropylcellulose) (HPC)) was 109 % of control.

For `CC(=O)SC1(C(C(N)=S)c2ccccc2)CCN(C)CC1` (configuration not stated), the T/C (dose: 50.0 mg/kg/injection, schedule: Q01DX005 (ip), vehicle: saline) was 105 % of control, the T/C (dose: 100.0 mg/kg/injection, schedule: Q01DX005 (ip), vehicle: saline) was 111 % of control and the T/C (dose: 200.0 mg/kg/injection, schedule: Q01DX005 (ip), vehicle: saline) was 101 % of control.
